Source: patent EP1290011B1 (Oncopeptides AB, priority 2000, dated 2001)
Structures can show the parent of a compound that is named as a salt. Where two headings read alike, the source gives them in different places.

Key:
Assay in all cases: cells
U-1568 = type: cell-based
NCI-H125 = type: cell-based
U-1752 = type: cell-based
NCI-H157 = type: cell-based
U1906L = type: cell-based
U1285 = type: cell-based
U-1810 = type: cell-based
U-1906E = type: cell-based
U1690 = type: cell-based
NCI-H611 = type: cell-based
NCI-H23 = type: cell-based
[1] = test system: solid tumour fresh human tumour specimens (PHTC); details: 72 h, read-out: Tumour cell survival index % Solid
H69AR = type: cell-based, human
8226LR5 = type: cell-based, human
[2] = test system: panel of ten human tumour cell lines; type: cell-based; details: read-out: MEAN IC50
ACHN = type: cell-based, human
H69 = type: cell-based, human
[3] = test system: hematological fresh human tumour specimens (PHTC); details: 72 h, read-out: Tumour cell survival index % Hematological
U937vcr = type: cell-based, human
CEM/S = type: cell-based, human
U937gtb = type: cell-based, human
8226S = type: cell-based, human
8226Dox40 = type: cell-based, human
CEM/R = type: cell-based, human

CC(=O)O[C@@]12CO[C@@H]1C[C@H](O)[C@@]1(C)C(=O)[C@H](O)C3=C(C)[C@@H](OC(=O)[C@H](O)[C@@H](NC(=O)OC(C)(C)C)c4ccccc4)C[C@@](O)([C@@H](OC(=O)c4ccccc4)[C@H]21)C3(C)C [Docetaxel, docetaxel] was tested, and the IC50 (U-1568) was 5940 nM, the IC50 (NCI-H125; Homo sapiens, NCI-H125) was 160 nM and the IC50 (U-1752) was 460 nM. The IC50 (NCI-H157; Homo sapiens, NCI-H157) was 100 nM, the IC50 (U1906L) was 100 nM and the IC50 (U1285) was 100 nM. For the same compound, the IC50 (U-1810; U-1810) was 100 nM, the IC50 (U-1906E) was 100 nM and the IC50 (U1690) was 7700 nM. The IC50 (NCI-H611) was 1100 nM, the IC50 (NCI-H23; Homo sapiens, NCI-H23) was 1500 nM and the viability at 6.2 µM [1] was 67%.

Compound CC[C@]1(O)C[C@H]2CN(CCc3c([nH]c4ccccc34)[C@@](C(=O)OC)(c3cc4c(cc3OC)N(C=O)[C@H]3[C@@](O)(C(=O)OC)[C@H](OC(C)=O)[C@]5(CC)C=CCN6CC[C@]43[C@@H]65)C2)C1 [Vincristine, vincristine, reference compound] has an IC50 (H69AR; Homo sapiens, H69AR, 72 h) of 121000 nM, an IC50 (8226LR5; Homo sapiens, 72 h) of 80 nM and an IC50 ([2]; Homo sapiens) of 30100 nM. The IC50 (ACHN; Homo sapiens, ACHN, 72 h) was 109000 nM, the IC50 (H69; Homo sapiens, NCI-H69, 72 h) was 69800 nM and the viability at 3 µM [3] was 39%. For the same compound, the IC50 (U937vcr; Homo sapiens, 72 h) was 80 nM, the IC50 (CEM/S; Homo sapiens, 72 h) was 80 nM and the IC50 (U937gtb; Homo sapiens, U-937/GTB, 72 h) was 10 nM. The IC50 (8226S; Homo sapiens, 72 h) was 10 nM, the IC50 (8226Dox40; Homo sapiens, 72 h) was 900 nM and the IC50 (CEM/R; Homo sapiens, 72 h) was 10 nM. The viability at 3 µM [1] was 93%.

CCOC(=O)[C@H](Cc1ccc(N)cc1)NC(=O)[C@@H](N)Cc1ccc(N(CCCl)CCCl)cc1 [JV29, L-Me3phalariyl-L-p-aminophenylalanine ethyl ester hydrochloride] gave an IC50 (H69AR; H69AR, doxorubicin resistance, 72 hours incubation, read-out: IC50) of 460 nM, an IC50 (8226LR5; 8226LR5, melphalan resistance, 72 hours incubation, read-out: IC50) of 2730 nM and an IC50 ([2]; mean over the ten cell lines) of 680 nM. For the same compound, the IC50 (ACHN; ACHN, primary resistant renal carcinoma, 72 hours incubation, read-out: IC50) was 190 nM, the IC50 (H69; H69, small cell lung cancer, 72 hours incubation, read-out: IC50) was 90 nM and the IC50 (U937vcr; U937vcr, vincristine resistance, 72 hours incubation, read-out: IC50) was 190 nM. It also gave an IC50 (CEM/S; CEM/S, 72 hours incubation, read-out: IC50) of 60 nM, an IC50 (U937gtb; U937gtb, lymphoma, 72 hours incubation, read-out: IC50) of 150 nM and an IC50 (8226S; 8226S, myeloma, 72 hours incubation, read-out: IC50) of 900 nM. For the same compound, the IC50 (8226Dox40; 8226Dox40, doxorubicin resistance, 72 hours incubation, read-out: IC50) was 2010 nM and the IC50 (CEM/R; CEM/R, 72 hours incubation, read-out: IC50) was 30 nM.

In the case of CC[C@@]1(O)C(=O)OCc2c1cc1n(c2=O)Cc2cc3c(CN(C)C)c(O)ccc3nc2-1 [Topotecan, topotecan, reference compound], the IC50 (U-1568) is reported as 115000 nM, the IC50 (H69AR; Homo sapiens, H69AR, 72 h) is reported as 180000 nM and the IC50 (NCI-H125; Homo sapiens, NCI-H125) is reported as 236000 nM. It also gave an IC50 (8226LR5; Homo sapiens, 72 h) of 210 nM, an IC50 ([2]; Homo sapiens) of 20000 nM and an IC50 (U-1752) of 28000 nM. For the same compound, the IC50 (ACHN; Homo sapiens, ACHN, 72 h) was 16300 nM, the IC50 (H69; Homo sapiens, NCI-H69, 72 h) was 1720 nM and the IC50 (NCI-H157; Homo sapiens, NCI-H157) was 4330 nM. The IC50 (U937vcr; Homo sapiens, 72 h) was 20 nM, the IC50 (CEM/S; Homo sapiens, 72 h) was 20 nM and the IC50 (U1906L) was 120 nM. It also gave an IC50 (U1285) of 170 nM, an IC50 (U-1810; U-1810) of 80 nM and an IC50 (U937gtb; Homo sapiens, U-937/GTB, 72 h) of 20 nM. The IC50 (8226S; Homo sapiens, 72 h) was 870 nM, the IC50 (8226Dox40; Homo sapiens, 72 h) was 590 nM and the IC50 (U-1906E) was 80 nM. For the same compound, the IC50 (U1690) was 920 nM, the IC50 (NCI-H611) was 236000 nM and the IC50 (NCI-H23; Homo sapiens, NCI-H23) was 5840 nM. The IC50 (CEM/R; Homo sapiens, 72 h) was 20 nM.

Compound CCOC(=O)[C@H](Cc1ccccc1)NC(=O)[C@@H](N)Cc1ccc(N(CCCl)CCCl)cc1 [JV22, L-Melphalanyl-L-phenylalanine ethyl ester hydrochloride] has an IC50 (H69AR; read-out: IC50) of 390 nM, an IC50 (8226LR5; read-out: IC50) of 1860 nM and an IC50 [2] of 480 nM. For the same compound, the IC50 (ACHN; read-out: IC50) was 170 nM, the IC50 (H69; read-out: IC50) was 40 nM and the IC50 (U937vcr; read-out: IC50) was 130 nM. The IC50 (CEM/S; read-out: IC50) was 20 nM, the IC50 (U937gtb; read-out: IC50) was 140 nM and the IC50 (8226S; read-out: IC50) was 670 nM. It also gave an IC50 (8226Dox40; read-out: IC50) of 1380 nM and an IC50 (CEM/R; read-out: IC50) of 10 nM.

For COc1cccc2c1C(=O)c1c(O)c3c(c(O)c1C2=O)C[C@@](O)(C(=O)CO)C[C@@H]3O[C@H]1C[C@H](N)[C@H](O)[C@H](C)O1 [Doxorubicin, doxorubicin], the IC50 (U-1568) was 183000 nM, the IC50 (H69AR; Homo sapiens, H69AR, 72 h) was 11600 nM and the IC50 (NCI-H125; Homo sapiens, NCI-H125) was 500 nM. For the same compound, the IC50 (8226LR5; Homo sapiens, 72 h) was 550 nM, the IC50 ([2]; Homo sapiens) was 3510 nM and the IC50 (U-1752) was 420 nM. The IC50 (ACHN; Homo sapiens, ACHN, 72 h) was 14200 nM, the IC50 (H69; Homo sapiens, NCI-H69, 72 h) was 1660 nM and the viability at 0.92 µM [3] was 29%. The IC50 (NCI-H157; Homo sapiens, NCI-H157) was 200 nM, the IC50 (U937vcr; Homo sapiens, 72 h) was 420 nM and the IC50 (CEM/S; Homo sapiens, 72 h) was 180 nM. The IC50 (U1906L) was 920 nM, the IC50 (U1285) was 520 nM and the IC50 (U-1810; U-1810) was 22800 nM. The IC50 (U937gtb; Homo sapiens, U-937/GTB, 72 h) was 110 nM, the IC50 (8226S; Homo sapiens, 72 h) was 130 nM and the IC50 (8226Dox40; Homo sapiens, 72 h) was 4970 nM. The IC50 (U-1906E) was 440 nM, the IC50 (U1690) was 2210 nM and the IC50 (NCI-H611) was 183000 nM. For the same compound, the IC50 (NCI-H23; Homo sapiens, NCI-H23) was 140 nM, the IC50 (CEM/R; Homo sapiens, 72 h) was 1310 nM and the viability at 0.92 µM [1] was 97%.

N.N.[Cl][Pt][Cl] [Cisplatin, cisplatin, reference compound] showed an IC50 (U-1568; read-out: IC50) of 23400 nM, an IC50 (H69AR; read-out: IC50) of 13500 nM and an IC50 (NCI-H125; read-out: IC50) of 7000 nM. The IC50 (8226LR5; read-out: IC50) was 16300 nM, the IC50 [2] was 18000 nM and the IC50 (U-1752; read-out: IC50) was 11700 nM. The IC50 (ACHN; read-out: IC50) was 17800 nM, the IC50 (H69; read-out: IC50) was 92500 nM and the IC50 (NCI-H157; read-out: IC50) was 27000 nM. The IC50 (U937vcr; read-out: IC50) was 3000 nM, the IC50 (CEM/S; read-out: IC50) was 2500 nM and the IC50 (U1285; read-out: IC50) was 2930 nM. The IC50 (U-1810; read-out: IC50) was 10300 nM, the IC50 (8226S; read-out: IC50) was 14800 nM and the IC50 (U-1906E; read-out: IC50) was 21100 nM. The IC50 (U1690; read-out: IC50) was 6730 nM, the IC50 (NCI-H611; read-out: IC50) was 50700 nM and the IC50 (NCI-H23; read-out: IC50) was 11600 nM. It also gave an IC50 (CEM/R; read-out: IC50) of 1870 nM.

CCOC(=O)[C@H](Cc1ccc(O)cc1)NC(=O)[C@@H](N)Cc1ccc(N(CCCl)CCCl)cc1 [JV24, L-Helphalanyl-L-tyrosine ethyl ester hydrochloride] gave an IC50 (H69AR; read-out: IC50) of 480 nM, an IC50 (8226LR5; read-out: IC50) of 2500 nM and an IC50 [2] of 1050 nM. For the same compound, the IC50 (ACHN; read-out: IC50) was 320 nM, the IC50 (H69; read-out: IC50) was 80 nM and the IC50 (U937vcr; read-out: IC50) was 210 nM. For the same compound, the IC50 (CEM/S; read-out: IC50) was 50 nM, the IC50 (U937gtb; read-out: IC50) was 200 nM and the IC50 (8226S; read-out: IC50) was 1110 nM. The IC50 (8226Dox40; read-out: IC50) was 5540 nM and the IC50 (CEM/R; read-out: IC50) was 30 nM.
